Among the data in patent US9636410B2, “Cationic oil-in-water emulsions” (priority 2011, dated 2017) are solubility and solubility in squalene values, retold here.

One data set is described as follows: physchem. Particulars: oil or lipid, thermodynamic from solid.
Data set [1] in a line: Solubility of fatty acids in squalene. As to conditions: for solubility: oil or lipid, thermodynamic from solid.
Where [2] appears, read: 4 °C, solubility in squalene, 4° C. (overnight), solution at the fatty acid's top concentration left at 4° C. overnight.
Where [3] appears, read: 60 °C, solubility in squalene at 5 mg/mL, mixed with squalene at 60° C.
Where [4] appears, read: 60 °C, solubility in squalene at 10 mg/mL, mixed with squalene at 60° C.
[5] abbreviates: 60 °C, solubility in squalene at 20 mg/mL, mixed with squalene at 60° C.
[6] abbreviates: 60 °C, solubility in squalene at 40 mg/mL, mixed with squalene at 60° C.

The term solubility denotes how much of the substance goes into solution per volume. Low readings indicate little dissolved substance, high ones much dissolved substance. For the compound `CCCCCCCCCCCCCCCCCCCC(=O)O` [Arachidic Acid (20:0), Arachidic Acid], the solubility in the data set “physchem” (setting [2]) was less than 40 mg/mL; in “physchem” (setting [3]) it was greater than 5 mg/mL; in the data set “physchem” (setting [4]), less than 10 mg/mL; in “physchem” (setting [5]), less than 20 mg/mL; in the data set “physchem” (setting [6]), less than 40 mg/mL.
In the case of `CCCCCCCCCCCCCCCCCCCCCC(=O)O` [Behenic Acid (22:0), Behenic Acid], the solubility in the data set “physchem” (setting [2]) is less than 40 mg/mL; in “physchem” (setting [3]), less than 5 mg/mL; in the data set “physchem” (setting [4]), less than 10 mg/mL; in “physchem” (setting [5]), less than 20 mg/mL; in the data set “physchem” (setting [6]) it was less than 40 mg/mL.
For `CC/C=C\C/C=C\C/C=C\C/C=C\C/C=C\C/C=C\CCC(=O)O` [Docosahexaenoic Acid (22:6), Docosahexaenoic Acid], the solubility in “physchem” (setting [2]) and in the data set “physchem” (setting [6]) was greater than 40 mg/mL each time.
Consider `CCCCCCCC/C=C/CCCCCCCC(=O)O` [Elaidic Acid (18:1)-trans, Elaidic Acid], for which the solubility is less than 40 mg/mL in the data set “physchem” (setting [2]) and greater than 40 mg/mL in “physchem” (setting [6]).
`CCCCCCCC/C=C\CCCCCCCCCCCC(=O)O` [Erucic Acid (22:1), Erucic Acid]: the solubility in “physchem” (4 °C) and in “physchem” (60 °C) was greater than 40 mg/mL each time.
Regarding `CCCCCCCCCCCCCCCCCCCCC(=O)O` [Heneicosanoic Acid], the solubility is less than 40 mg/mL in the data set “physchem” (setting [2]); less than 5 mg/mL in the data set “physchem” (setting [3]); less than 10 mg/mL in the data set “physchem” (setting [4]); less than 20 mg/mL in the data set “physchem” (setting [5]); less than 40 mg/mL in “physchem” (setting [6]).
Turning to `CCCCCCCCCCCCCCCCC(=O)O` [Heptadecanoic Acid], the solubility was less than 40 mg/mL in “physchem” (setting [2]); greater than 5 mg/mL in the data set “physchem” (setting [3]); less than 10 mg/mL in “physchem” (setting [4]); less than 20 mg/mL in the data set “physchem” (setting [5]); less than 40 mg/mL in “physchem” (setting [6]).
Consider `CCCCCCCCCCCC(=O)O` [Lauric acid (12:0), Lauric acid], for which the solubility was less than 40 mg/mL in “physchem” (4 °C) and greater than 40 mg/mL in the data set “physchem” (60 °C).
With `CCCCCCCCCCCCCCCCCCCCCCCC(=O)O` [Lignoceric Acid (24:0), Lignoceric Acid], the solubility in the data set “physchem” (setting [2]) is less than 40 mg/mL; in the data set “physchem” (setting [3]) it was less than 5 mg/mL; in the data set “physchem” (setting [4]), less than 10 mg/mL; in “physchem” (setting [5]), less than 20 mg/mL; in the data set “physchem” (setting [6]) it was less than 40 mg/mL.
In the case of `CCCCC/C=C\C/C=C\CCCCCCCC(=O)O` [Linoleic Acid (18:2), Linoleic Acid], the solubility in the data set “physchem” (4 °C) and in the data set “physchem” (60 °C) was greater than 40 mg/mL each time.
Regarding `CC/C=C\C/C=C\C/C=C\CCCCCCCC(=O)O` [Linolenic Acid (18:3), Linolenic Acid], the solubility in “physchem” (setting [2]) and in the data set “physchem” (setting [6]) was greater than 40 mg/mL throughout.
As for `CCCCCCCCCCCCCC(=O)O` [Myristic Acid (14:0), Myristic Acid], the solubility in “physchem” (setting [2]) is less than 40 mg/mL; in the data set “physchem” (setting [5]), greater than 20 mg/mL; in “physchem” (setting [6]), less than 40 mg/mL.
For `CCCCCCCC/C=C\CCCCCCCCCCCCCC(=O)O` [Nervonic Acid (24:1), Nervonic Acid], the solubility in the data set “physchem” (setting [2]) is less than 40 mg/mL; in the data set “physchem” (setting [6]), greater than 40 mg/mL.
As for `CCCCCCCCCCCCCCCCCCC(=O)O` [Nonadecanoic Acid], the solubility is less than 40 mg/mL in the data set “physchem” (setting [2]); less than 5 mg/mL in “physchem” (setting [3]); less than 10 mg/mL in “physchem” (setting [4]); less than 20 mg/mL in the data set “physchem” (setting [5]); less than 40 mg/mL in the data set “physchem” (setting [6]).
Take `CCCCCCCC/C=C\CCCCCCCC(=O)O` [Oleic Acid (18:1)-cis, Oleic Acid]: the solubility in squalene entry in data set [1] (40 mg/ml) is given as “soluble in squalene”; in data set [1] (4° C. overnight) it was “remained soluble in squalene”. The solubility in the data set “physchem” (setting [2]) and in the data set “physchem” (setting [6]) was greater than 40 mg/mL in each case.
Take `CCCCCC/C=C\CCCCCCCC(=O)O` [Palmitoleic Acid (16:1), Palmitoleic Acid]: the solubility in “physchem” (setting [2]) and in “physchem” (setting [6]) was greater than 40 mg/mL each time.
For `CCCCCCCCCCCCCCC(=O)O` [Pentadecanoic Acid], the solubility is less than 40 mg/mL in the data set “physchem” (setting [2]) and greater than 40 mg/mL in “physchem” (setting [6]).
Turning to `CCCCCCCCCCC/C=C\CCCCC(=O)O` [Petroselinic Acid (18:1), Petroselinic Acid], the solubility in data set [1] (4 °C) and in data set [1] (60 °C) was greater than 40 mg/mL each time.
Turning to `CCCCCCCCCCCCCCCCCCCCCCC(=O)O` [Tricosanoic Acid], the solubility in “physchem” (setting [2]) was less than 40 mg/mL; in the data set “physchem” (setting [3]) it was less than 5 mg/mL; in the data set “physchem” (setting [4]) it was less than 10 mg/mL; in “physchem” (setting [5]), less than 20 mg/mL; in “physchem” (setting [6]), less than 40 mg/mL.
Regarding `CCCCCCCCCCCCC(=O)O` [Tridecanoic Acid], the solubility is less than 40 mg/mL in “physchem” (setting [2]) and greater than 40 mg/mL in “physchem” (setting [6]).
Take `CCCCCCCCCCC(=O)O` [Undecanoic Acid]: the solubility in “physchem” (setting [2]) and in “physchem” (setting [6]) was greater than 40 mg/mL each time.
